Our source for the MIC values is patent US11691949B2, “Quinoline sulfonamide compounds and their use as antibacterial agents” (OTAGO INNOVATION LIMITED, priority 2017, dated 2023).

Common to all, as to assay type: cell-based
The test system of assay [1] is S. uberis ATCC 19436. The assay can be described thus: MIC by broth microdilution, S. uberis. Conditions: Streptococcus uberis, read-out: S. uberis ATCC 19436 MIC. The protocol: (§1) Antibacterial susceptibility testing was performed in triplicate (biological) by measuring minimum inhibitory concentrations (MICs) by broth microdilution in 96-well flat bottom microtiter plates (ThermoFisher Scientific, New Zealand). S. uberis ATCC 19436, S. aureus ATCC 6538, or E. coli ATCC 10596 cells grown overnight were diluted to an OD600 of approximately 0.025, so that the final concentration of cells in the MIC assay was approximately 5×10^5 cfu/mL in media as follows: S. uberis; Todd Hewitt Broth (THB), S. aureus; Tryptic Soy Broth (TSB) and Cation Adjusted Muller Hinton Broth (CAMHB), and E. coli; Lysogeny Borth (LB) and CAMHB, before being dispensed into microtiter wells. As required additional sterile Zinc Sulphate (Heptahydrate) was supplemented into the media, so the final concentration was 50 μM. Test compounds were added to starting wells and two-fold serial dilutions were undertaken to generate a range of inhibitor concentrations at a final volume of 200 μl. Media and test compound-free (untreated) controls were included in each microtiter plate in triplicate. After 24 h incubation at 37° C. and 200 rpm, the OD600 of wells were read using a Varioskan Flash plate reader (ThermoFisher Scientific, New Zealand). The MIC was reported as the lowest concentration of the test compound for which no growth occurred, as determined by OD600 readings. The minimum bactericidal concentration (MBC) was determined using the Miles-Misra drop-plate method to measure the viability of cells in response to test compound challenge.

Assay [2] concerns S. aureus ATCC 6538. The assay can be described thus: MIC by broth microdilution, S. aureus. Conditions: Staphylococcus aureus, read-out: S. aureus ATCC 6538 MIC. Here is the method: as §1
For assay [3], the system named is E. coli ATCC 10596. Description: MIC by broth microdilution, E. coli. Conditions: Escherichia coli, read-out: E. coli ATCC 10536 MIC. The protocol: as §1
[4] abbreviates: ATCC 10536 / ATCC 10596, No Zinc.
[5] abbreviates: ATCC 10536 / ATCC 10596, Zinc (50 μM).

In brackets after ≈: the same amount, converted by molar mass. Where two headings read alike, the source gives them in different places.

In the case of `O=S(=O)(Nc1cccc2ccc(CNc3ccccn3)nc12)c1ccc(C(F)(F)F)cc1` [ZDR109, N-(2-((Pyridin-2-ylamino)methyl)quinolin-8-yl)-4-(trifluoromethyl)benzenesulfonamide], the MIC in assay [1] (ATCC19436, No Zinc) is greater than 256 µg/mL; in assay [1] (ATCC19436, Zinc (50 μM)) it was 0.5 µg/mL (≈ 1.09 µM); in assay [2] (ATCC6538, No Zinc), greater than 256 µg/mL; in assay [2] (ATCC6538, Zinc (50 μM)), greater than 256 µg/mL; in assay [3] (setting [4]) it was greater than 256 µg/mL; in assay [3] (setting [5]) it was greater than 256 µg/mL.
In the case of `CCCCS(=O)(=O)Nc1cccc2ccc(CN(C)C)nc12` [ZDR321, N-(2-((Dimethylamino)methyl)quinolin-8-yl)butane-1-sulfonamide], the MIC was 256 µg/mL (≈ 796 µM) in assay [1] (ATCC19436, No Zinc); 0.25 µg/mL (≈ 0.778 µM) in assay [1] (ATCC19436, Zinc (50 μM)); greater than 256 µg/mL in assay [2] (ATCC6538, No Zinc); 128 µg/mL (≈ 398 µM) in assay [2] (ATCC6538, Zinc (50 μM)); greater than 256 µg/mL in assay [3] (setting [4]); greater than 256 µg/mL in assay [3] (setting [5]).
As to `CN(C)Cc1ccc2cccc(NS(=O)(=O)N3CCCC3)c2n1` [ZDR204, N-(2-((Dimethylamino)methyl)quinolin-8-yl)pyrrolidine-1-sulfonamide], the MIC is 256 µg/mL (≈ 765 µM) in assay [1] (ATCC19436, No Zinc); 0.5 µg/mL (≈ 1.5 µM) in assay [1] (ATCC19436, Zinc (50 μM)); greater than 256 µg/mL in assay [2] (ATCC6538, No Zinc); 256 µg/mL (≈ 765 µM) in assay [2] (ATCC6538, Zinc (50 μM)); greater than 256 µg/mL in assay [3] (setting [4]); greater than 256 µg/mL in assay [3] (setting [5]).
For the molecule `Cc1cccc(S(=O)(=O)Nc2cccc3ccc(CN(C)C)nc23)c1` [ZDR315, N-(2-((Dimethylamino)methyl)quinolin-8-yl)-3-methylbenzenesulfonamide], the MIC is greater than 256 µg/mL in assay [1] (ATCC19436, No Zinc); 0.25 µg/mL (≈ 0.703 µM) in assay [1] (ATCC19436, Zinc (50 μM)); 256 µg/mL (≈ 720 µM) in assay [2] (ATCC6538, No Zinc); greater than 256 µg/mL in assay [2] (ATCC6538, Zinc (50 μM)); greater than 256 µg/mL in assay [3] (setting [4]); greater than 256 µg/mL in assay [3] (setting [5]).
For `CN(C)Cc1ccc2cccc(NS(=O)(=O)c3cccc(O)c3)c2n1` [ZDR163, N-(2-((Dimethylamino)methyl)quinolin-8-yl)-3-hydroxybenzenesulfonamide], the MIC in assay [1] (ATCC19436, No Zinc) was greater than 256 µg/mL; in assay [1] (ATCC19436, Zinc (50 μM)) it was 8 µg/mL (≈ 22.4 µM); in assay [2] (ATCC6538, No Zinc), greater than 256 µg/mL; in assay [2] (ATCC6538, Zinc (50 μM)), greater than 256 µg/mL; in assay [3] (setting [4]), greater than 256 µg/mL; in assay [3] (setting [5]), greater than 256 µg/mL.
As to `CN(C)CC(=O)NCc1ccc2cccc(NS(=O)(=O)c3ccc(C(F)(F)F)cc3)c2n1` [ZDR205, 2-(Dimethylamino)-N-((8-((4-(trifluoromethyl)phenyl)sulfonamido)quinolin-2-yl)methyl)acetamide], the MIC is 256 µg/mL (≈ 549 µM) in assay [1] (ATCC19436, No Zinc); 0.125 µg/mL (≈ 0.268 µM) in assay [1] (ATCC19436, Zinc (50 μM)); 128 µg/mL (≈ 274 µM) in assay [2] (ATCC6538, No Zinc); 64 µg/mL (≈ 137 µM) in assay [2] (ATCC6538, Zinc (50 μM)); greater than 256 µg/mL in assay [3] (setting [4]); greater than 256 µg/mL in assay [3] (setting [5]).
For the molecule `CC(=O)NCCNCc1ccc2cccc(NS(=O)(=O)c3ccc(C(F)(F)F)cc3)c2n1` [ZDR148, N-(2-(((8-((4-(Trifluoromethyl)phenyl)sulfonamido)quinolin-2-yl)methyl)amino)ethyl)acetamide], the MIC in assay [1] (ATCC19436, No Zinc) turned out to be 64 µg/mL (≈ 137 µM); in assay [1] (ATCC19436, Zinc (50 μM)), 1 µg/mL (≈ 2.14 µM); in assay [2] (ATCC6538, No Zinc), 64 µg/mL (≈ 137 µM); in assay [2] (ATCC6538, Zinc (50 μM)), 128 µg/mL (≈ 274 µM); in assay [3] (setting [4]), 128 µg/mL (≈ 274 µM); in assay [3] (setting [5]), 256 µg/mL (≈ 549 µM).
As to `O=S(=O)(Nc1cccc2ccc(CO)nc12)c1ccc(C(F)(F)F)cc1` [ZDR176, N-(2-(Hydroxymethyl)quinolin-8-yl)-4-(trifluoromethyl)benzenesulfonamide], the MIC is greater than 256 µg/mL in assay [1] (ATCC19436, No Zinc); 0.5 µg/mL (≈ 1.31 µM) in assay [1] (ATCC19436, Zinc (50 μM)); 4 µg/mL (≈ 10.5 µM) in assay [2] (ATCC6538, No Zinc); 4 µg/mL (≈ 10.5 µM) in assay [2] (ATCC6538, Zinc (50 μM)); greater than 256 µg/mL in assay [3] (setting [4]); greater than 256 µg/mL in assay [3] (setting [5]).
With `C#CCNCc1ccc2cccc(NS(=O)(=O)c3ccc(C(F)(F)F)cc3)c2n1` [ZDR098, N-(2-((Prop-2-yn-1-ylamino)methyl)quinolin-8-yl)-4-(trifluoromethyl)benzenesulfonamide], the MIC is 64 µg/mL (≈ 153 µM) in assay [1] (ATCC19436, No Zinc); 0.125 µg/mL (≈ 0.298 µM) in assay [1] (ATCC19436, Zinc (50 μM)); 64 µg/mL (≈ 153 µM) in assay [2] (ATCC6538, No Zinc); greater than 256 µg/mL in assay [2] (ATCC6538, Zinc (50 μM)); greater than 256 µg/mL in assay [3] (setting [4]); greater than 256 µg/mL in assay [3] (setting [5]).
As to `CC(=O)NCc1ccc2cccc(NS(=O)(=O)c3ccc(C(F)(F)F)cc3)c2n1` [ZDR185, N-((8-((4-(Trifluoromethyl)phenyl)sulfonamido)quinolin-2-yl)methyl)acetamide], the MIC was greater than 256 µg/mL in assay [1] (ATCC19436, No Zinc); 0.125 µg/mL (≈ 0.295 µM) in assay [1] (ATCC19436, Zinc (50 μM)); 256 µg/mL (≈ 605 µM) in assay [2] (ATCC6538, No Zinc); 32 µg/mL (≈ 75.6 µM) in assay [2] (ATCC6538, Zinc (50 μM)); greater than 256 µg/mL in assay [3] (setting [4]); greater than 256 µg/mL in assay [3] (setting [5]).
